{"source": "patent US9453026B2", "about": "“ACC inhibitors and uses thereof” (Gilead Apollo, Inc., priority 2011, dated 2016)", "target": "ACC2 (Homo sapiens, UniProt O00763)", "sequence (O00763 whole entry, species assumed)": "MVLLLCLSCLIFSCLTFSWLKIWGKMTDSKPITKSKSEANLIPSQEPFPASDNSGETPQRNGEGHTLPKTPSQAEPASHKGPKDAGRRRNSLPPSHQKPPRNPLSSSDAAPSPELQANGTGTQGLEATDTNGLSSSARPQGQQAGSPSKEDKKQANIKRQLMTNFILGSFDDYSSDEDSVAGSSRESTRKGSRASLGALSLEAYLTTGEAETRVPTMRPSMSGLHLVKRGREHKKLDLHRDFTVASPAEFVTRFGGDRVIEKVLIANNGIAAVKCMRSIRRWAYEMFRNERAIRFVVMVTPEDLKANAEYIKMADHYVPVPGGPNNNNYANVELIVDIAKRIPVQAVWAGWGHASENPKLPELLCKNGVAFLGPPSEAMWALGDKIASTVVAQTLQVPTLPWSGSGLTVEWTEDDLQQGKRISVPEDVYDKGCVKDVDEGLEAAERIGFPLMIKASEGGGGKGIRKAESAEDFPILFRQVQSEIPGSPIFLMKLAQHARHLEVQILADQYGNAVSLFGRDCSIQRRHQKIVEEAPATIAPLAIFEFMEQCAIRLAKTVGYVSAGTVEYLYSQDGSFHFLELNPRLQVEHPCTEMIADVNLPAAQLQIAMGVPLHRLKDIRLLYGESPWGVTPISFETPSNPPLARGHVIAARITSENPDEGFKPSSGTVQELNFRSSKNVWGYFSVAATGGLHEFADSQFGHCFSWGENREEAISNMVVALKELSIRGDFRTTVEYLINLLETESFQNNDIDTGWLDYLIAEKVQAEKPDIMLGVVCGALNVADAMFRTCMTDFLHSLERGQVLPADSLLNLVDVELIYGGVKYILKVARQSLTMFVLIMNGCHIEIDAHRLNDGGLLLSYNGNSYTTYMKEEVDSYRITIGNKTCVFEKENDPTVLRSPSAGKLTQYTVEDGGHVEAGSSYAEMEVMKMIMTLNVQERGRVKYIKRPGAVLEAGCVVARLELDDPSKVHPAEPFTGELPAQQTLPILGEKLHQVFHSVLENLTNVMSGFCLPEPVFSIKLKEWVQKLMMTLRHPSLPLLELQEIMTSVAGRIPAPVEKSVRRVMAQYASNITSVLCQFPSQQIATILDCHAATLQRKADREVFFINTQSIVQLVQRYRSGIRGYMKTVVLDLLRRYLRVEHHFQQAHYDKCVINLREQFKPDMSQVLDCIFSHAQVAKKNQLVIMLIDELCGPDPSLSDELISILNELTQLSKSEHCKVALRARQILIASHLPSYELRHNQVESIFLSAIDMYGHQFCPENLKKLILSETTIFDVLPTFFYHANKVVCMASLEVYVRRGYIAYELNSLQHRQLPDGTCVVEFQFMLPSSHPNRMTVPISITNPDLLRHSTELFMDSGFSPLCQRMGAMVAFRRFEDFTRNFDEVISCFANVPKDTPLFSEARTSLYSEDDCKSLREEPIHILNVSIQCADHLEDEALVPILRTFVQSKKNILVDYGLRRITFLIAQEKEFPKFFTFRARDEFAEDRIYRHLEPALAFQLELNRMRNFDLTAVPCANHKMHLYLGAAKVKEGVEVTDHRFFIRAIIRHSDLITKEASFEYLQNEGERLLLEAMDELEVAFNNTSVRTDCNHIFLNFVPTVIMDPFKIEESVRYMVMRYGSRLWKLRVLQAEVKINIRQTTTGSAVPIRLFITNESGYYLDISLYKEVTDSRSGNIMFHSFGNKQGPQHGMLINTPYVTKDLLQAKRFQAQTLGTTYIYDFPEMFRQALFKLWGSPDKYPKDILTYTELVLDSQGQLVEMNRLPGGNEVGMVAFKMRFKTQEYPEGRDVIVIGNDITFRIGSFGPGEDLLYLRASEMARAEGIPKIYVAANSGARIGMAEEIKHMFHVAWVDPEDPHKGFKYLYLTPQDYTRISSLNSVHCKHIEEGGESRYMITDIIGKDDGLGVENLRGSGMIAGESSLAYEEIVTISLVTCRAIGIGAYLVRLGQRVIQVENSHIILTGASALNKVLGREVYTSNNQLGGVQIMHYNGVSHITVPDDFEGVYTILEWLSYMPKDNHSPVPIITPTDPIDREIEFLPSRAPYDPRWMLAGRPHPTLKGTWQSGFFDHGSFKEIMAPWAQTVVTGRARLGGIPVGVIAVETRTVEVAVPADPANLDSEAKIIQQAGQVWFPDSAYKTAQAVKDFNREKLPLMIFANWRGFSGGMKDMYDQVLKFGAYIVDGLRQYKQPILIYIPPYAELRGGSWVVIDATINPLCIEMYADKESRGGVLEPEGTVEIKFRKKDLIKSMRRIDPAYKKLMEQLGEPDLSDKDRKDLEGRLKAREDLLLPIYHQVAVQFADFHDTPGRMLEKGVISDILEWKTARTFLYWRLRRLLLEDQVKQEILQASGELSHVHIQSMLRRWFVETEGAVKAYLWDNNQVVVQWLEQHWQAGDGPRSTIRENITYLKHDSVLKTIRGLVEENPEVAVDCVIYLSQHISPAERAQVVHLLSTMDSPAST", "assay": "In vitro ACC2 inhibition assay (ADP-Glo)", "type": "biochemical", "conditions": "read-out: ACC2", "how_it_was_run": "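Enzyme (human ACC1 or ACC2) and compound, serially diluted 1:3 over 11 points from a 600 uM DMSO stock, were preincubated 15 min before substrate addition.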", "data": [{"compound": "CCOC(=O)c1sc2c(c1C)c(=O)n(C(C)(C)C(=O)O)c(=O)n2C[C@H](OC(C)C)c1ccc(I)cc1", "note": "[I-129, (R)-2-(6-(ethoxycarbonyl)-1-(2-(4-iodophenyl)-2-isopropoxyethyl)-5-methyl-2,4-dioxo-1,2-dihydrothieno[2,3-d]pyrimidin-3(4H)-yl)-2-methylpropanoic acid]", "values": [{"measurement": "IC50", "value": "5 to 20", "unit": "µM"}]}, {"compound": "Cc1c(C2CC2)sc2c1c(=O)n(C(C)(C)C(=O)O)c(=O)n2CCc1ccccc1", "note": "[I-132, 2-[6-cyclopropyl-5-methyl-2,4-dioxo-1-(2-phenylethyl)-1H,2H,3H,4H-thieno[2,3-d]pyrimidin-3-yl]-2-methylpropanoic acid]", "values": [{"measurement": "IC50", "value": "20 to 50", "unit": "µM"}]}, {"compound": "Cc1c(-c2ncco2)sc2c1c(=O)n(C(C)(C)C(=O)O)c(=O)n2C[C@H](OCc1ccccc1)c1ccccc1", "note": "[I-136, 2-[1-[(2R)-2-(benzyloxy)-2-phenylethyl]-5-methyl-6-(1,3-oxazol-2-yl)-2,4-dioxo-1H,2H,3H,4H-thieno[2,3-d]pyrimidin-3-yl]-2-methylpropanoic acid]", "values": [{"measurement": "IC50", "value": "< 5", "unit": "µM"}]}, {"compound": "Cc1c(-c2ncco2)sc2c1c(=O)n(C(C)(C)C(=O)O)c(=O)n2C[C@H](OCC(F)(F)F)c1ccccc1", "note": "[I-137, 2-methyl-2-[5-methyl-6-(1,3-oxazol-2-yl)-2,4-dioxo-1-[2-phenyl-2-(2,2,2-trifluoroethoxy)ethyl]-1H,2H,3H,4H-thieno[2,3-d]pyrimidin-3-yl]propanoic acid]", "values": [{"measurement": "IC50", "value": "< 1", "unit": "µM"}]}, {"compound": "Cc1c(-c2ncco2)sc2c1c(=O)n(C(C)(C)C(=O)O)c(=O)n2C[C@@H](OCC(F)(F)F)c1ccccc1", "note": "[I-138, (S)-2-methyl-2-(5-methyl-6-(oxazol-2-yl)-2,4-dioxo-1-(2-phenyl-2-(2,2,2-trifluoroethoxy)ethyl)-1,2-dihydrothieno[2,3-d]pyrimidin-3(4H)-yl)propanoic acid]", "values": [{"measurement": "IC50", "value": "5 to 20", "unit": "µM"}]}, {"compound": "Cc1c(-c2nccs2)sc2c1c(=O)n(C(C)(C)C(=O)O)c(=O)n2C[C@H](OC(C)C)c1ccccc1", "note": "[I-141, 2-methyl-2-[5-methyl-2,4-dioxo-1-[(2R)-2-phenyl-2-(propan-2-yloxy)ethyl]-6-(1,3-thiazol-2-yl)-1H,2H,3H,4H-thieno[2,3-d]pyrimidin-3-yl]propanoic acid]", "values": [{"measurement": "IC50", "value": "< 5", "unit": "µM"}]}, {"compound": "Cc1c(-c2ncco2)sc2c1c(=O)n(CC#N)c(=O)n2C[C@H](OC(C)C)c1ccccc1", "note": "[I-142, 2-(1-((R)-2-Isopropoxy-2-phenylethyl)-5-methyl-6-(oxazol-2-yl)-2,4-dioxo-1,2-dihydrothieno[2,3-d]pyrimidin-3(4H)-yl)acetonitrile]", "values": [{"measurement": "IC50", "value": "< 1", "unit": "µM"}]}, {"compound": "Cc1c(-c2ncco2)sc2c1c(=O)n(C(C)(C)C(=O)O)c(=O)n2C[C@@H](Oc1ccccc1)c1ccccc1", "note": "[I-144, 2-methyl-2-[5-methyl-6-(1,3-oxazol-2-yl)-2,4-dioxo-1-[(2S)-2-phenoxy-2-phenylethyl]-1H,2H,3H,4H-thieno[2,3-d]pyrimidin-3-yl]propanoic acid]", "values": [{"measurement": "IC50", "value": "5 to 20", "unit": "µM"}]}, {"compound": "Cc1c(-c2ncco2)sc2c1c(=O)n(C(C)(C)C(=O)O)c(=O)n2C[C@H](OCC1CCCO1)c1ccccc1", "note": "(stereo partly drawn) [I-146, 2-methyl-2-[5-methyl-6-(1,3-oxazol-2-yl)-2,4-dioxo-1-[(2R)-2-(oxolan-2-ylmethoxy)-2-phenylethyl]-1H,2H,3H,4H-thieno[2,3-d]pyrimidin-3-yl]propanoic acid]", "values": [{"measurement": "IC50", "value": "< 1", "unit": "µM"}]}, {"compound": "Cc1c(-c2ncco2)sc2c1c(=O)n(C(C)(C)C(=O)O)c(=O)n2C[C@H](OC1CCC(C)(C)CC1)c1ccccc1", "note": "[I-148, 2-[1-[(2R)-2-[(4,4-dimethylcyclohexyl)oxy]-2-phenylethyl]-5-methyl-6-(1,3-oxazol-2-yl)-2,4-dioxo-1H,2H,3H,4H-thieno[2,3-d]pyrimidin-3-yl]-2-methylpropanoic acid]", "values": [{"measurement": "IC50", "value": "< 5", "unit": "µM"}]}, {"compound": "Cc1c(-c2ncco2)sc2c1c(=O)n(C(C)(C)C(=O)O)c(=O)n2C[C@H](Oc1ccc(F)cc1)c1ccccc1", "note": "[I-149, (R)-2-(1-(2-(4-fluorophenoxy)-2-phenylethyl)-5-methyl-6-(oxazol-2-yl)-2,4-dioxo-1,2-dihydrothieno[2,3-d]pyrimidin-3(4H)-yl)-2-methylpropanoic acid]", "values": [{"measurement": "IC50", "value": "< 1", "unit": "µM"}]}, {"compound": "Cc1c(-c2ncco2)sc2c1c(=O)n(C(C)(C)C(=O)O)c(=O)n2C[C@@H](Oc1ccc(F)cc1)c1ccccc1", "note": "[I-150, (S)-2-(1-(2-(4-fluorophenoxy)-2-phenylethyl)-5-methyl-6-(oxazol-2-yl)-2,4-dioxo-1,2-dihydrotheno[2,3-d]pyrimidin-3(4H)-yl)-2-methylpropanoic acid]", "values": [{"measurement": "IC50", "value": "5 to 20", "unit": "µM"}]}, {"compound": "CCCc1ccccc1CCn1c(=O)n(C(C)(C)C(N)=O)c(=O)c2c(C)c(-c3ncco3)sc21", "note": "[I-151, 2-methyl-2-[5-methyl-6-(1,3-oxazol-2-yl)-2,4-dioxo-1-[2-(2-propylphenyl)ethyl]-1H,2H,3H,4H-thieno[2,3-d]pyrimidin-3-yl]propanamide]", "values": [{"measurement": "IC50", "value": "< 1", "unit": "µM"}]}, {"compound": "Cc1c(-c2ncco2)sc2c1c(=O)n(C(C)(C)C(=O)O)c(=O)n2C[C@H](O[C@H]1CCCC[C@@H]1C)c1ccccc1", "note": "[I-152, 2-methyl-2-[5-methyl-1-[(2R)-2-[[(1S,2S)-2-methylcyclohexyl]oxy]-2-phenylethyl]-6-(1,3-oxazol-2-yl)-2,4-dioxo-1H,2H,3H,4H-thieno[2,3-d]pyrimidin-3-yl]propanoic acid]", "values": [{"measurement": "IC50", "value": "< 1", "unit": "µM"}]}, {"compound": "Cc1c(-c2ncco2)sc2c1c(=O)n(Cc1nn[nH]n1)c(=O)n2C[C@H](OC(C)C)c1ccccc1", "note": "[I-153, 5-methyl-6-(1,3-oxazol-2-yl)-1-[(2R)-2-phenyl-2-(propan-2-yloxy)ethyl]-3-(1H-1,2,3,4-tetrazol-5-ylmethyl)-1H,2H,3H,4H-thieno[2,3-d]pyrimidine-2,4-dione]", "values": [{"measurement": "IC50", "value": "< 1", "unit": "µM"}]}, {"compound": "Cc1c(-c2ncco2)sc2c1c(=O)n(C(C)(C)C#N)c(=O)n2C[C@H](OC(C)C)c1ccccc1", "note": "[I-154, 2-methyl-2-[5-methyl-6-(1,3-oxazol-2-yl)-2,4-dioxo-1-[(2R)-2-phenyl-2-(propan-2-yloxy)ethyl]-1H,2H,3H,4H-thieno[2,3-d]pyrimidin-3-yl]propanenitrile]", "values": [{"measurement": "IC50", "value": "< 1", "unit": "µM"}]}, {"compound": "Cc1c(-c2ncco2)sc2c1c(=O)n(C(C)(C)C(=O)O)c(=O)n2C[C@H](OC1CCC(F)(F)CC1)c1ccccc1", "note": "[I-155, 2-[1-[(2R)-2-[(4,4-difluorocyclohexyl)oxy]-2-phenylethyl]-5-methyl-6-(1,3-oxazol-2-yl)-2,4-dioxo-1H,2H,3H,4H-thieno[2,3-d]pyrimidin-3-yl]-2-methylpropanoic acid]", "values": [{"measurement": "IC50", "value": "< 1", "unit": "µM"}]}, {"compound": "Cc1c(-c2ncc(Cl)o2)sc2c1c(=O)n(C(C)(C)C(=O)O)c(=O)n2C[C@H](OC(C)C)c1ccccc1", "note": "[I-156, 2-[6-(5-chloro-1,3-oxazol-2-yl)-5-methyl-2,4-dioxo-1-[(2R)-2-phenyl-2-(propan-2-yloxy)ethyl]-1H,2H,3H,4H-thieno[2,3-d]pyrimidin-3-yl]-2-methylpropanoic acid]", "values": [{"measurement": "IC50", "value": "< 5", "unit": "µM"}]}, {"compound": "Cc1c(-n2cncn2)sc2c1c(=O)n(C(C)(C)C(=O)O)c(=O)n2C[C@H](OC(C)C)c1ccccc1", "note": "[I-157, 2-methyl-2-[5-methyl-2,4-dioxo-1-[(2R)-2-phenyl-2-(propan-2-yloxy)ethyl]-6-(1H-1,2,4-triazol-1-yl)-1H,2H,3H,4H-thieno[2,3-d]pyrimidin-3-yl]propanoic acid]", "values": [{"measurement": "IC50", "value": "20 to 50", "unit": "µM"}]}, {"compound": "Cc1c(-c2ncco2)sc2c1c(=O)n(C(C)(C)C(=O)O)c(=O)n2C[C@@H](Oc1ccc(-n2ccnc2)cc1)c1ccccc1", "note": "[I-161, 2-[1-[(2S)-2-[4-(1H-Imidazol-1-yl)phenoxy]-2-phenylethyl]-5-methyl-6-(1,3-oxazol-2-yl)-2,4-dioxo-1H,2H,3H,4H-thieno[2,3-d]pyrimidin-3-yl]-2-methylpropanoic acid]", "values": [{"measurement": "IC50", "value": "< 5", "unit": "µM"}]}, {"compound": "Cc1c(-c2ncco2)sc2c1c(=O)n(C(C)(C)C(=O)O)c(=O)n2C[C@H](O[C@H]1CC[C@H](N)CC1)c1ccccc1", "note": "[I-166, 2-(1-((R)-2-(((1r,4R)-4-aminocyclohexyl)oxy)-2-phenylethyl)-5-methyl-6-(oxazol-2-yl)-2,4-dioxo-1,2-dihydrothieno[2,3-d]pyrimidin-3(4H)-yl)-2-methylpropanoic acid]", "values": [{"measurement": "IC50", "value": "< 1", "unit": "µM"}]}, {"compound": "Cc1c(-c2ncco2)sc2c1c(=O)n(C(C)(C)C(=O)O)c(=O)n2C[C@H](O[C@H]1CC[C@@H](N)CC1)c1ccccc1", "note": "[I-167, 2-(1-((R)-2-(((1s,4S)-4-aminocyclohexyl)oxy)-2-phenylethyl)-5-methyl-6-(oxazol-2-yl)-2,4-dioxo-1,2-dihydrothieno[2,3-d]pyrimidin-3(4H)-yl)-2-methylpropanoic acid]", "values": [{"measurement": "IC50", "value": "< 5", "unit": "µM"}]}, {"compound": "Cc1c(-c2ncco2)sc2c1c(=O)n(C(C)(C)C(=O)O)c(=O)n2C[C@H](O[C@H]1CC[C@@](C)(O)CC1)c1ccccc1", "note": "[I-168, 2-(1-((R)-2-(((1s,4S)-4-hydroxy-4-methylcyclohexyl)oxy)-2-phenylethyl)-5-methyl-6-(oxazol-2-yl)-2,4-doxo-1,2-dihydrothieno[2,3-d]pyrimidin-3(4H)-yl)-2-methylpropanoic acid]", "values": [{"measurement": "IC50", "value": "< 1", "unit": "µM"}]}, {"compound": "Cc1c(-c2ncco2)sc2c1c(=O)n(C(C)(C)C(=O)O)c(=O)n2C[C@H](OCCO)c1ccccc1", "note": "[I-169, 2-[1-[(2R)-2-(2-hydroxyethoxy)-2-phenylethyl]-5-methyl-6-(1,3-oxazol-2-yl)-2,4-dioxo-1H,2H,3H,4H-thieno[2,3-d]pyrimidin-3-yl]-2-methylpropanoic acid]", "values": [{"measurement": "IC50", "value": "< 0.1", "unit": "µM"}]}, {"compound": "Cc1c(-c2ncco2)sc2c1c(=O)n(C(C)(C)C(=O)O)c(=O)n2C[C@H](OC[C@H](C)CO)c1ccccc1", "note": "[I-170, 2-(1-((R)-2-((R)-3-hydroxy-2-methylpropoxy)-2-phenylethyl)-5-methyl-6-(oxazol-2-yl)-2,4-dioxo-1,2-dihydrotheno[2,3-d]pyrimidin-3(4H)-yl)-2-methylpropanoic acid]", "values": [{"measurement": "IC50", "value": "< 1", "unit": "µM"}]}, {"compound": "Cc1c(-c2ncco2)sc2c1c(=O)n(C(C)(C)C(=O)O)c(=O)n2C[C@H](OC[C@@H](C)CO)c1ccccc1", "note": "[I-171, 2-(1-((R)-2-((S)-3-hydroxy-2-methylpropoxy)-2-phenylethyl)-5-methyl-6-(oxazol-2-yl)-2,4-dioxo-1,2-dihydrothieno[2,3-d]pyrimidin-3(4H)-yl)-2-methylpropanoic acid]", "values": [{"measurement": "IC50", "value": "< 1", "unit": "µM"}]}, {"compound": "Cc1c(-c2ncco2)sc2c1c(=O)n(C(C)(C)C(=O)O)c(=O)n2C[C@H](O[C@H]1CCC[C@H](O)C1)c1ccccc1", "note": "[I-172, 2-(1-((R)-2-(((1S,3S)-3-hydroxycyclohexyl)oxy)-2-phenylethyl)-5-methyl-6-(oxazol-2-yl)-2,4-dioxo-1,2-dihydrothieno[2,3-d]pyrimidin-3(4H)-yl)-2-methylpropanoic acid]", "values": [{"measurement": "IC50", "value": "< 1", "unit": "µM"}]}]}
